Several values for one entry are separate records, joined by “and”; a condition that tells them apart may be missing. Equal values may be shown once.
Tested on: panel of 484 cancer cell lines
Assay: PRISM cancer cell line profiling, 5 days
Type: cell-based
Design: Viability: scale not given here; AUC: unit not given beside the values
Protocol: Cancer cell line profiling was performed using the Broad’s PRISM platform. Cell treatment and data analysis were performed as described in Yu et al[42]. Raw Luminex signal was converted to AUC values for each cell line as described. The resulting AUC profile for each compound was modeled against DepMap using the limma package in R[71]. Because hotspot mutation analysis was performed against DepMap, TP53 annotations in Fig. 6c,d are directly from DepMap.

[1] = CAL12T_LUNG, pert_dose 6.10E-04
[2] = CAL27_UPPER_AERODIGESTIVE_TRACT, pert_dose 6.10E-04
[3] = CAL29_URINARY_TRACT, pert_dose 6.10E-04

COc1ccc(C2=N[C@@H](c3ccc(Cl)cc3)[C@@H](c3ccc(Cl)cc3)N2C(=O)N2CCNC(=O)C2)c(OC(C)C)c1 [Nutlin-3A] was tested, and the Viability (CAKI1_KIDNEY, pert_dose 6.10E-04) was 1.281, the AUC (CAL12T_LUNG) was 1.284 and the “MFI CAL12T_LUNG” value [1] was 11558 and 13284 and 9249.5 and 12951.5 and 13183. The Viability [1] was 1.338, the AUC (CAL27_UPPER_AERODIGESTIVE_TRACT) was 1.085 and the “MFI CAL27_UPPER_AERODIGESTIVE_TRACT” value [2] was 20059.5 and 19151.5 and 25415 and 19627.5 and 22725.5. The Viability [2] was 1.031, the AUC (CAL29_URINARY_TRACT) was 1.177 and the “MFI CAL29_URINARY_TRACT” value [3] was 9011 and 8957 and 10277.5 and 8231.5 and 10904. The Viability [3] was 1.551, the AUC (CAL51_BREAST) was 1.0736 and the “MFI CAL51_BREAST” value (CAL51_BREAST, pert_dose 6.10E-04) was 12828 and 10989 and 10227 and 16366 and 8548.5. It also gave an AUC (CAL54_KIDNEY) of 1.148, a Viability (CAL54_KIDNEY, pert_dose 6.10E-04) of 1.061 and an AUC (CAL62_THYROID) of 1.139. The “MFI CAL62_THYROID” value (CAL62_THYROID, pert_dose 6.10E-04) was 19352 and 23281.5 and 23347 and 21690 and 18079, the AUC (CAL78_BONE) was 1.142 and the AUC (CAL120_BREAST) was 1.092. The “MFI CAL120_BREAST” value (CAL120_BREAST, pert_dose 6.10E-04) was 15064 and 12880 and 13041 and 15017 and 12012.5, the AUC (CALU1_LUNG) was 0.9872 and the AUC (CALU6_LUNG) was 1.11. For the same molecule, the “MFI CALU6_LUNG” value (CALU6_LUNG, pert_dose 6.10E-04) was 19804 and 26726 and 21267 and 25781.5 and 28928.5, the AUC (CAMA1_BREAST) was 1.153 and the “MFI CAMA1_BREAST” value (CAMA1_BREAST, pert_dose 6.10E-04) was 1412 and 1959.5 and 1768 and 1670.5 and 1819.5. The AUC (CAOV3_OVARY) was 1.212, the “MFI CAOV3_OVARY” value (CAOV3_OVARY, pert_dose 6.10E-04) was 4238 and 2774 and 4113 and 2696.5 and 4069 and the AUC (CAPAN2_PANCREAS) was 1.279. For the same molecule, the AUC (CCFSTTG1_CENTRAL_NERVOUS_SYSTEM) was 0.9997, the “MFI CCFSTTG1_CENTRAL_NERVOUS_SYSTEM” value (CCFSTTG1_CENTRAL_NERVOUS_SYSTEM, pert_dose 6.10E-04) was 2625 and 1957.5 and 2163 and 2860 and 1678.5 and the AUC (CFPAC1_PANCREAS) was 1.133. For the same molecule, the “MFI CFPAC1_PANCREAS” value (CFPAC1_PANCREAS, pert_dose 6.10E-04) was 12988 and 12890.5 and 8831 and 16982.5 and 13585.5, the AUC (CHL1_SKIN) was 1.101 and the “MFI CHL1_SKIN” value (CHL1_SKIN, pert_dose 6.10E-04) was 25277 and 22527.5 and 16250 and 20018.5 and 22530. The AUC (CJM_SKIN) was 1.181, the “MFI CJM_SKIN” value (CJM_SKIN, pert_dose 6.10E-04) was 9757.5 and 5484 and 9139.5 and 7090.5 and 8423 and the AUC (CL34_LARGE_INTESTINE) was 1.025. The “MFI CL34_LARGE_INTESTINE” value (CL34_LARGE_INTESTINE, pert_dose 6.10E-04) was 3669 and 4269 and 5343.5 and 2751 and 2702, the AUC (COLO668_LUNG) was 1.1 and the AUC (COLO679_SKIN) was 0.88. For the same molecule, the “MFI COLO679_SKIN” value (COLO679_SKIN, pert_dose 6.10E-04) was 6568.5 and 8262 and 8427 and 10413 and 7461, the AUC (COLO680N_OESOPHAGUS) was 1.159 and the “MFI COLO680N_OESOPHAGUS” value (COLO680N_OESOPHAGUS, pert_dose 6.10E-04) was 5933.5 and 4468 and 6131 and 5620 and 4657. For the same molecule, the AUC (COLO741_SKIN) was 1.078, the “MFI COLO741_SKIN” value (COLO741_SKIN, pert_dose 6.10E-04) was 3302 and 2497 and 3485 and 3755 and 2923 and the AUC (COLO783_SKIN) was 1.125. The “MFI COLO783_SKIN” value (COLO783_SKIN, pert_dose 6.10E-04) was 9292.5 and 11134.5 and 11660 and 10125 and 10684, the AUC (COLO792_SKIN) was 0.8537 and the “MFI COLO792_SKIN” value (COLO792_SKIN, pert_dose 6.10E-04) was 5216 and 3883.5 and 6906 and 3698 and 6181. The AUC (COLO800_SKIN) was 0.9456, the “MFI COLO800_SKIN” value (COLO800_SKIN, pert_dose 6.10E-04) was 9562 and 9966.5 and 9539 and 8965 and 10824 and the AUC (CORL23_LUNG) was 1.082. For the same molecule, the “MFI CORL23_LUNG” value (CORL23_LUNG, pert_dose 6.10E-04) was 18251 and 21912.5 and 23721 and 22738.5 and 19507.5, the AUC (CORL105_LUNG) was 0.9293 and the “MFI CORL105_LUNG” value (CORL105_LUNG, pert_dose 6.10E-04) was 3831.5 and 2259.5 and 3159 and 2363.5 and 2088.5. The AUC (COV362_OVARY) was 1.112, the “MFI COV362_OVARY” value (COV362_OVARY, pert_dose 6.10E-04) was 17061 and 16771 and 18006 and 14276 and 17716.5 and the AUC (COV434_OVARY) was 0.499. For the same molecule, the “MFI COV434_OVARY” value (COV434_OVARY, pert_dose 6.10E-04) was 2287 and 4116 and 4254.5 and 3247 and 3013, the AUC (DANG_PANCREAS) was 1.183 and the “MFI DANG_PANCREAS” value (DANG_PANCREAS, pert_dose 6.10E-04) was 3936.5 and 2389 and 3329.5 and 4098 and 2374. For the same molecule, the AUC (DAOY_CENTRAL_NERVOUS_SYSTEM) was 1.063, the “MFI DAOY_CENTRAL_NERVOUS_SYSTEM” value (DAOY_CENTRAL_NERVOUS_SYSTEM, pert_dose 6.10E-04) was 3341 and 3770 and 5391 and 3660 and 5169 and the AUC (DBTRG05MG_CENTRAL_NERVOUS_SYSTEM) was 0.8565. For the same molecule, the “MFI DBTRG05MG_CENTRAL_NERVOUS_SYSTEM” value (DBTRG05MG_CENTRAL_NERVOUS_SYSTEM, pert_dose 6.10E-04) was 9502 and 12025.5 and 11037.5 and 11248 and 13043, the AUC (DETROIT562_UPPER_AERODIGESTIVE_TRACT) was 1.165 and the “MFI DETROIT562_UPPER_AERODIGESTIVE_TRACT” value (DETROIT562_UPPER_AERODIGESTIVE_TRACT, pert_dose 6.10E-04) was 11765 and 10497.5 and 16246.5 and 13989 and 13619. The AUC (DKMG_CENTRAL_NERVOUS_SYSTEM) was 0.8274, the AUC (DMS273_LUNG) was 1.073 and the “MFI DMS273_LUNG” value (DMS273_LUNG, pert_dose 6.10E-04) was 11114.5 and 10196.5 and 9771 and 10022 and 13797. For the same molecule, the AUC (DU145_PROSTATE) was 1.079, the “MFI DU145_PROSTATE” value (DU145_PROSTATE, pert_dose 6.10E-04) was 21126.5 and 23687 and 17071 and 16938.5 and 18848 and the AUC (DV90_LUNG) was 0.8353. For the same molecule, the “MFI DV90_LUNG” value (DV90_LUNG, pert_dose 6.10E-04) was 7893 and 6981 and 9620.5 and 7167 and 6096.5, the “∆ (AUC, TP53 mutation vs WT; decreased sensitivity)” value (DepMap TP53 mutation annotation) was 0.0919 and the AUC (EBC1_LUNG) was 1.0742. The “MFI EBC1_LUNG” value (EBC1_LUNG, pert_dose 6.10E-04) was 12931 and 11768 and 13134.5 and 11101.5 and 10612, the AUC (ECGI10_OESOPHAGUS) was 1.177 and the AUC (EFM192A_BREAST) was 1.203. The AUC (EFO21_OVARY) was 1.106, the “MFI EFO21_OVARY” value (EFO21_OVARY, pert_dose 6.10E-04) was 6907 and 7302 and 6854 and 7260 and 4429 and the AUC (EFO27_OVARY) was 1.1574. The “MFI EFO27_OVARY” value (EFO27_OVARY, pert_dose 6.10E-04) was 9100.5 and 10537 and 7873 and 14276 and 9706, the AUC (EN_ENDOMETRIUM) was 1.075 and the AUC (ES2_OVARY) was 1.089. For the same molecule, the “MFI ES2_OVARY” value (ES2_OVARY, pert_dose 6.10E-04) was 18459 and 23432 and 12997.5 and 16216 and 13403, the AUC (ESS1_ENDOMETRIUM) was 1.129 and the “MFI ESS1_ENDOMETRIUM” value (ESS1_ENDOMETRIUM, pert_dose 6.10E-04) was 2916 and 2399 and 2841.5 and 2277 and 1505. The AUC (EWS502_BONE) was 1.109, the “MFI EWS502_BONE” value (EWS502_BONE, pert_dose 6.10E-04) was 3099 and 3510.5 and 2209 and 3124 and 3278.5 and the AUC (FADU_UPPER_AERODIGESTIVE_TRACT) was 1.169. For the same molecule, the “MFI FADU_UPPER_AERODIGESTIVE_TRACT” value (FADU_UPPER_AERODIGESTIVE_TRACT, pert_dose 6.10E-04) was 3959.5 and 4203 and 5203 and 4740.5 and 7313 and the AUC (FTC133_THYROID) was 1.156.
